The values that follow come from patent US8613914B2, “Peptidomimetic sulfamide compounds and antiviral uses thereof” (Novartis AG, priority 2009, dated 2013).

The assay deals with HCV NS3-4A serine protease (full-length NS3-4A protein) (Hepatitis C virus genotype 1a (isolate 1) (HCV), UniProt P26664). In words: HCV NS3-4A protease assay. It counts as biochemical, HCV genotype 1a. The settings on record: strain HCV-1, fluorogenic peptide substrate, read-out: Protease assay Ex. 12 IC50. The method, then:
The inhibitory activity of certain compounds of Table A against HCV NS3-4A serine protease is determined in a homogenous assay using the full-length NS3-4A protein (genotype 1a, strain HCV-1) and a commercially available internally-quenched fluorogenic peptide substrate as described by Taliani, M., et al. 1996 Anal. Biochem. 240:60-67, which is incorporated by reference in its entirety.

Chain of HCV NS3-4A serine protease (full-length NS3-4A protein) (P26664 1027-1657): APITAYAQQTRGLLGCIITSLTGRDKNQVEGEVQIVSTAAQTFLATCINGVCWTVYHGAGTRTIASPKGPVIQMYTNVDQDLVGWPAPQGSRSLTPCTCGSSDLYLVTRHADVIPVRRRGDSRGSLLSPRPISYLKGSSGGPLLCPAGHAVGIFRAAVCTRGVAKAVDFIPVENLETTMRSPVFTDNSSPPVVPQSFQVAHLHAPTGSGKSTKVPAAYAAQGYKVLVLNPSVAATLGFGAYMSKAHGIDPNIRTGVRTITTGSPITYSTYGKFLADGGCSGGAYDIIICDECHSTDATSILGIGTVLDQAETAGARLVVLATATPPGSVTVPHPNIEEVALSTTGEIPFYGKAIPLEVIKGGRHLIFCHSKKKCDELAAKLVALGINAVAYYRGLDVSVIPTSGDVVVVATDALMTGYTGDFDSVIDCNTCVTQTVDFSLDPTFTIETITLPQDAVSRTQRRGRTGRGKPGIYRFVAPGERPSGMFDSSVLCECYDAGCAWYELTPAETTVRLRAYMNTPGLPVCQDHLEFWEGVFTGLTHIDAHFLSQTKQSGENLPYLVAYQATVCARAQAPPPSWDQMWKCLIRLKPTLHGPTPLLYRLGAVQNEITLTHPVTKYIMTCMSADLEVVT
Chain of HCV NS3-4A serine protease (full-length NS3-4A protein) (P26664 1658-1711 partner): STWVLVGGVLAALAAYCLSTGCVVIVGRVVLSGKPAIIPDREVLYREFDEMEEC

Consider `C=C[C@@H]1C[C@]1(NC(=O)[C@@H]1C[C@@]2(CN1C(=O)[C@@H](NC(=O)[C@@H](NC(=O)[C@@H]1CCCCN1C(C)C)C1CCCCC1)C(C)(C)C)C(C)(C)C21CCC1)C(=O)NS(=O)(=O)N(CC)CC(F)F` [Compound 155, (5R,8S)-7-[(2S)-2-{[(2S)-2-cyclohexyl-2-({[(2S)-1-isopropylpiperidin-2-yl]carbonyl}amino)acetyl]amino}-3,3-dimethylbutanoyl]-N-[(1R,2S)-1-({[(2,2-difluoroethyl)(ethyl)amino]sulfonyl}carbamoyl)-2-vinylcyclopropyl]-10,10-dimethyl-7-azadispiro[3.0.4.1]decane-8-carboxamide], for which the 50% inhibitory concentration (IC50) was 4.4 nM. For the molecule `C=C[C@@H]1C[C@]1(NC(=O)[C@@H]1C[C@@]2(CN1C(=O)[C@@H](NC(=O)[C@@H](NC(=O)[C@H]1CCCCN1C(C)C)C1CCCCC1)C(C)(C)C)C(C)(C)C21CCC1)C(=O)NS(=O)(=O)N(C)CC` [Compound 92, (5R,8S)-7-[(2S)-2-{[(2S)-2-cyclohexyl-2-({[(2R)-1-isopropylpiperidin-2-yl]carbonyl}amino)acetyl]amino}-3,3-dimethylbutanoyl]-N-[(1R,2S)-1-({[ethyl(methyl)amino]sulfonyl}carbamoyl)-2-vinylcyclopropyl]-10,10-dimethyl-7-azadispiro[3.0.4.1]decane-8-carboxamide], the IC50 came to 3 nM. On to `C=C[C@@H]1C[C@]1(NC(=O)[C@@H]1C[C@@]2(CN1C(=O)[C@@H](NC(=O)[C@@H](NC(=O)[C@@H]1CCCCN1C(C)C)C1CCOCC1)C1(C)CCOCC1)C(C)(C)C21CCC1)C(=O)NS(=O)(=O)N1CCCC1` [Compound 127, (5R,8S)-7-[(2S)-2-{[(2S)-2-({[(2S)-1-isopropylpiperidin-2-yl]carbonyl}amino)-2-(tetrahydro-2H-pyran-4-yl)acetyl]amino}-2-(4-methyltetrahydro-2H-pyran-4-yl)acetyl]-10,10-dimethyl-N-{(1R,2S)-1-[(pyrrolidin-1-ylsulfonyl)carbamoyl]-2-vinylcyclopropyl}-7-azadispiro[3.0.4.1]decane-8-carboxamide], for which the concentration for half-maximal inhibition (IC50) is 4 nM. Next, `C=C[C@@H]1C[C@]1(NC(=O)[C@@H]1C[C@@]2(CN1C(=O)[C@@H](NC(=O)[C@@H](NC(=O)[C@@H]1CCCCN1C(C)C)C(C)(C)C)C(C)C)C(C)(C)C21CCC1)C(=O)NS(=O)(=O)N(CC)CC` [Compound 131, (5R,8S)-N-[(1R,2S)-1-{[(diethylamino)sulfonyl]carbamoyl}-2-vinylcyclopropyl]-7-[(2S)-2-{[(2S)-2-({[(2S)-1-isopropylpiperidin-2-yl]carbonyl}amino)-3,3-dimethylbutanoyl]amino}-3-methylbutanoyl]-10,10-dimethyl-7-azadispiro[3.0.4.1]decane-8-carboxamide]: 5.5 nM. Regarding `C=C[C@@H]1C[C@]1(NC(=O)[C@@H]1C[C@@]2(CN1C(=O)[C@@H](NC(=O)[C@@H](NC(=O)[C@@H]1CCCN1C(C)C)C1CCCCC1)C(C)(C)C)C(C)(C)C21CCC1)C(=O)NS(=O)(=O)N1CCCC1` [Compound 15, (5R,8S)-7-[(2S)-2-{[(2S)-2-cyclohexyl-2-({[(2S)-1-isopropylpyrrolidin-2-yl]carbonyl}amino)acetyl]amino}-3,3-dimethylbutanoyl]-10,10-dimethyl-N-{(1R,2S)-1-[(pyrrolidin-1-ylsulfonyl)carbamoyl]-2-vinylcyclopropyl}-7-azadispiro[3.0.4.1]decane-8-carboxamide], the IC50 amounted to 2 nM. `C=C[C@@H]1C[C@]1(NC(=O)[C@@H]1C[C@@]2(CN1C(=O)[C@@H](NC(=O)[C@@H](NC(=O)[C@@H]1CCCCN1C(C)C)C(C)C)C(C)C)C(C)(C)C21CCC1)C(=O)NS(=O)(=O)N(CC)CC` [Compound 130, (5R,8S)-N-[(1R,2S)-1-{[(diethylamino)sulfonyl]carbamoyl}-2-vinylcyclopropyl]-7-[(2S)-2-{[(2S)-2-({[(2S)-1-isopropylpiperidin-2-yl]carbonyl}amino)-3-methylbutanoyl]amino}-3-methylbutanoyl]-10,10-dimethyl-7-azadispiro[3.0.4.1]decane-8-carboxamide]: the IC50 is 8 nM.

In the case of `C=C[C@@H]1C[C@]1(NC(=O)[C@@H]1C[C@@]2(CN1C(=O)[C@@H](NC(=O)[C@@H](NC(=O)c1nccc3ccccc13)C1CCCCC1)C(C)(C)C)C(C)(C)C21CCC1)C(=O)NS(=O)(=O)N1CCCC1` [Compound 195, (5R,8S)-7-[(2S)-2-({cyclohexyl[(isoquinolin-1-ylcarbonyl)amino]acetyl}amino)-3,3-dimethylbutanoyl]-10,10-dimethyl-N-{(1R,2S)-1-[(pyrrolidin-1-ylsulfonyl)carbamoyl]-2-vinylcyclopropyl}-7-azadispiro[3.0.4.1]decane-8-carboxamide], the concentration for half-maximal inhibition (IC50) is 75 nM. As to `C=C[C@@H]1C[C@]1(NC(=O)[C@@H]1C[C@@]2(CN1C(=O)[C@@H](NC(=O)[C@@H](NC(=O)[C@@H]1CCCCN1C(C)C)C1CCCC1)C(C)(C)C)C(C)(C)C21CCC1)C(=O)NS(=O)(=O)N1CCCC1` [Compound 58, (5R,8S)-7-[(2S)-2-{[(2S)-2-cyclopentyl-2-({[(2S)-1-isopropylpiperidin-2-yl]carbonyl}amino)acetyl]amino}-3,3-dimethylbutanoyl]-10,10-dimethyl-N-{(1R,2S)-1-[(pyrrolidin-1-ylsulfonyl)carbamoyl]-2-vinylcyclopropyl}-7-azadispiro[3.0.4.1]decane-8-carboxamide], the 50% inhibitory concentration (IC50) is 3.5 nM. `C=C[C@@H]1C[C@]1(NC(=O)[C@@H]1C[C@@]2(CN1C(=O)[C@@H](NC(=O)[C@@H](NC(=O)[C@@H]1CCCCN1C(C)C)C(C)(C)C)C(C)(C)C)C(C)(C)C21CCC1)C(=O)NS(=O)(=O)N1CCOCC1` [Compound 6, (5R,8S)-7-[(2S)-2-{[(2S)-2-({[(2S)-1-isopropylpiperidin-2-yl]carbonyl}amino)-3,3-dimethylbutanoyl]amino}-3,3-dimethylbutanoyl]-10,10-dimethyl-N-{(1R,2S)-1-[(morpholin-4-ylsulfonyl)carbamoyl]-2-vinylcyclopropyl}-7-azadispiro[3.0.4.1]decane-8-carboxamide]: the IC50 worked out at 45 nM. For `CC[C@@H]1C[C@]1(NC(=O)[C@@H]1C[C@@]2(CN1C(=O)[C@@H](NC(=O)[C@@H](NC(=O)[C@H]1CCCCN1C(C)C)C1CCCCC1)C(C)(C)C)C(C)(C)C21CCC1)C(=O)NS(=O)(=O)N(CC)CC` [Compound 121, (5R,8S)-7-[(2S)-2-{[(2S)-2-cyclohexyl-2-({[(2R)-1-isopropylpiperidin-2-yl]carbonyl}amino)acetyl]amino}-3,3-dimethylbutanoyl]-N-[(1R,2R)-1-{[(diethylamino)sulfonyl]carbamoyl}-2-ethylcyclopropyl]-10,10-dimethyl-7-azadispiro[3.0.4.1]decane-8-carboxamide], the IC50 is 7 nM. As for `C=C[C@@H]1C[C@]1(NC(=O)[C@@H]1C[C@@]2(CN1C(=O)[C@@H](NC(=O)[C@@H](NC(=O)[C@@H]1CCCN1CCF)C1CCCCC1)C1CCOCC1)C(C)(C)C21CCC1)C(=O)NS(=O)(=O)N1CCCC1` [Compound 73, (5R,8S)-7-[(2S)-2-{[(2S)-2-cyclohexyl-2-({[(2S)-1-(2-fluoroethyl)pyrrolidin-2-yl]carbonyl}amino)acetyl]amino}-2-(tetrahydro-2H-pyran-4-yl)acetyl]-10,10-dimethyl-N-{(1R,2S)-1-[(pyrrolidin-1-ylsulfonyl)carbamoyl]-2-vinylcyclopropyl}-7-azadispiro[3.0.4.1]decane-8-carboxamide], the 50% inhibitory concentration (IC50) is 15 nM.

What is called IC50 is the concentration needed to halve the response being measured.
